The subject of one series is melanin. As to the kind of experiment: Compound binding to melanin. The format is in vitro ADME. The note with it: cuttlefish (Sepia officinalis), melanin suspension (1 mg/mL), percentage of free drug (not bound to melanin), 2 µM compound, melanin 1 mg/mL in PBS pH 7.4, 37°C. The text has this: Detection of Compound Binding to Melanin
Pigmented ocular tissues contain melanin within intracellular melanosomes. Drugs bind to melanin to varying degrees, from no binding to extensive binding. Therefore, melanin binding is an important characteristic affecting ocular drug delivery and biodistribution. The ability of compounds to bind to melanin must be considered in ocular drug development.
Melanin derived from cuttlefish (Sepia officinalis) melanin was purchased from Sigma Aldrich (St Louis, MO).
First, prepare a 1 mg/mL melanin suspension in PBS (pH 7.4). As a matrix washing step, suspended particles were centrifuged at 3000 rpm for 5 minutes. The resulting pellet was resuspended in fresh PBS buffer, heated to 37°C with continuous shaking, and incubated for 1 hour. Accurately pipette 2 microliters of test compound stock solution (0.1 mM) into 98 microliters of melanin suspension (1 mg/mL), resulting in a final incubation concentration of 2 µM. Similarly, accurately pipette 2 microliters of stock solution (0.1 mM) into 98 microliters of PBS buffer (containing 0.1% BSA) as a blank control sample. Samples were incubated at 37°C for 2 hours on a shaker (80-90 rpm). Then centrifuged at room temperature. 50 microliters of supernatant was aspirated and added to 50 microliters of precipitation agent (containing internal standard). All samples above were subjected to protein precipitation, centrifuged, the supernatant was taken, diluted with water (if necessary), and then injected for analysis. Simultaneously, high-binding compounds Sunitinib and chloroquine, and the low-binding compound celecoxib were measured as positive controls. An LC-MS/MS analytical method for determining compound concentration was established. The ratio of analyte/internal standard peak areas (Aanalyte/AIS) measured in the samples, calibrated by the dilution factor, was used as the surrogate concentration for data processing. The binding rate of the compound to melanin (Fb) is calculated by the formula: Fb = 100−(Ctest)/(Ccontrol) × 100% [formula]
Ctest is the drug concentration of the compound in the melanin incubation sample or the peak area ratio of the test compound to the internal standard. Ccontrol is the drug concentration of the compound in the blank control sample or the peak area ratio of the test compound to the internal standard. Percentage of free drug (Fu%) = 100 - Fb The binding rates of the compounds of the present invention to melanin are shown in the table below: Table 11. Binding Rate of Compounds to Melanin

A short description of series [1]: Thermodynamic solubility test. The format is physicochemical. The following applies: buffer solution, aqueous buffer, thermodynamic from solid; thermodynamic solubility, room temperature, 8 hours shaking; buffers pH 2.0, 6.5, 7.4 used, pH of the tabulated value not given. As to the method:
Solubility Test of Compounds
Table 9. Reagents and Instruments
After sonication for 10 minutes, they were fixed on a shaker and shaken at room temperature for 8 hours. After shaking, they were sonicated for 10 minutes and centrifuged at 13000 rpm for 15 minutes. 0.1 mL of supernatant was aspirated into a new tube, rinsed with 5 mL of buffer by shaking, and the liquid was discarded. 0.5 mL of supernatant was transferred again to a new tube, centrifuged at 13000 rpm for 15 minutes, and the supernatant was taken (diluted with water if necessary) for LC-MS injection analysis. Sample concentrations were quantified using a 3-5 point calibration curve.

≈ marks a conversion by molar mass, not a printed value.

In general, fraction unbound refers to free concentration divided by total concentration. A lower fraction unbound goes with extensive binding. In the series with melanin, `CN(C)CCOc1ccc(/C=C/c2n[nH]c3cc(Sc4ccccc4C(=O)NC4CC4)ccc23)nc1` [Compound I-51, N-cyclopropyl-2-({3-[(E)-2-{5-[2-(dimethylamino)ethoxy]pyridin-2-yl}ethenyl]-1H-indazol-6-yl}sulfanyl)benzamide] yielded a fraction unbound at 2 h, 2 µM of 0.01 to 0.05.

The solubility is how much of the substance goes into solution per volume. As for `CCN(CC)Cc1ccc(/C=C/c2n[nH]c3cc(Sc4cc(F)ccc4C(=O)NC4CC4)ccc23)nc1` [Compound I-83, N-cyclopropyl-4-fluoro-2-({3-[(E)-2-{5-[(diethylamino)methyl]pyridin-2-yl}ethenyl]-1H-indazol-6-yl}thio)benzamide], the solubility at 8 h in series [1] is 0.0796 mg/mL (≈ 154 µM). Besides, the fraction unbound at 2 h, 2 µM in the series on melanin is greater than 0.05.

`CNC(=O)c1cccc(F)c1Sc1ccc2c(/C=C/c3cnn(CCCN4CCCC4)c3)n[nH]c2c1` [Compound I-76] had a solubility at 8 h in series [1] of 1.77 mg/mL (≈ 3520 µM). Moreover, the fraction unbound at 2 h, 2 µM with melanin was greater than 0.05.

In turn, `CNC(=O)c1ccc(F)cc1Sc1ccc2c(/C=C/c3ccc(OCCN4CCCC4)cn3)n[nH]c2c1` [Compound I-35, 4-fluoro-N-methyl-2-({3-[(E)-2-{5-[2-(pyrrolidin-1-yl)ethoxy]pyridin-2-yl}ethenyl]-1H-indazol-6-yl}sulfanyl)benzamide] showed a solubility at 8 h in series [1] of 0.0266 mg/mL (≈ 51.4 µM). Further, in the series on melanin, the fraction unbound at 2 h, 2 µM was in the range of 0.01 to 0.05.

Turning to `CNC(=O)c1ccccc1Sc1ccc2c(/C=C/c3cccc(OCCN4CCCC4)c3)n[nH]c2c1` [Compound I-15], the solubility at 8 h in series [1] was found to be 0.0788 mg/mL (≈ 158 µM). In the series on melanin, the unbound share (fraction unbound) at 2 h, 2 µM is 0.01 to 0.05.

In series [1], `CNC(=O)c1ccccc1Sc1ccc2c(/C=C/c3ccn(CCCN4CCCC4)n3)n[nH]c2c1` [Compound I-11] gave a solubility at 8 h of 0.866 mg/mL (≈ 1780 µM). Also, the unbound share (fraction unbound) at 2 h, 2 µM with melanin lay within 0.01 to 0.05.

On to `CNC(=O)c1ccccc1Sc1ccc2c(/C=C/c3cc(OCCN4CCCC4)ccn3)n[nH]c2c1` [Compound I-20], for which the solubility at 8 h in series [1] came out at 0.128 mg/mL (≈ 256 µM). For the same compound, the fraction unbound at 2 h, 2 µM in the series with melanin was in the range of 0.01 to 0.05.

In the series on melanin, `O=C(NC1CC1)c1ccccc1Sc1ccc2c(/C=C/c3cnn(CCN4CCCC4)c3)n[nH]c2c1` [Compound I-61] showed a fraction unbound at 2 h, 2 µM of 0.01 to 0.05.

Consider `CCNC(=O)c1ccccc1Sc1ccc2c(/C=C/c3ccc(CN4CCCC4)cn3)n[nH]c2c1` [Compound I-73, N-ethyl-2-({3-[(E)-2-{5-[(pyrrolidin-1-yl)methyl]pyridin-2-yl}ethenyl]-1H-indazol-6-yl}thio)benzamide], for which the fraction unbound at 2 h, 2 µM in the series on melanin was in the range of 0.01 to 0.05.

For `CCN(CC)Cc1ccc(/C=C/c2n[nH]c3cc(Sc4ccccc4C(=O)NC)ccc23)nc1` [Compound I-90], the solubility at 8 h in series [1] is 0.0319 mg/mL (≈ 67.6 µM). The fraction unbound at 2 h, 2 µM in the series on melanin lay in the range of 0.01 to 0.05.

As to `O=C(NC1CC1)c1ccccc1Sc1ccc2c(/C=C/c3ccc(OCCN4CCCC4)cn3)n[nH]c2c1` [Compound I-8, N-cyclopropyl-2-((3-((E)-2-(5-(2-(pyrrolidin-1-yl)ethoxy)pyridin-2-yl)ethenyl)-1H-indazol-6-yl)thio)benzamide], in series [1], the solubility at 8 h came out at 1.87 mg/mL (≈ 3560 µM). Moreover, the fraction unbound at 2 h, 2 µM in the series on melanin fell in the range of 0.01 to 0.05.

`CCN(CC)CCOc1ccc(/C=C/c2n[nH]c3cc(Sc4ccccc4C(=O)NC4CC4)ccc23)nc1` [Compound I-52] displayed a free fraction (fraction unbound) at 2 h, 2 µM in the series on melanin greater than 0.05.

In the series with melanin, `CCN(CC)Cc1ccc(/C=C/c2n[nH]c3cc(Sc4ccc(F)cc4C(=O)NC)ccc23)nc1` [Compound I-93] showed a free fraction (fraction unbound) at 2 h, 2 µM of 0.01 to 0.05.

In the series on melanin, `CNC(=O)c1ccccc1Sc1ccc2c(/C=C/c3ccnc(OCCN4CCCC4)c3)n[nH]c2c1` [Compound I-18] returned a fraction unbound at 2 h, 2 µM of 0.01 to 0.05.

`O=C(NC1CC1)c1ccccc1Sc1ccc2c(/C=C/c3ccc(OCCN4CCCCC4)cn3)n[nH]c2c1` [Compound I-53]: the fraction unbound at 2 h, 2 µM in the series on melanin is greater than 0.05.

In the series on melanin, `CNC(=O)c1ccccc1Sc1ccc2c(/C=C/c3ccc(CCN4CCCC4)cn3)n[nH]c2c1` [Compound I-107] showed a free fraction (fraction unbound) at 2 h, 2 µM of 0.01 to 0.05.

`O=C(NC1CC1)c1ccccc1Sc1ccc2c(/C=C/c3cc(CN4CCCC4)ccn3)n[nH]c2c1` [Compound I-115] had a fraction unbound at 2 h, 2 µM in the series on melanin of 0.01 to 0.05.

For `O=C(NC1CC1)c1ccccc1Sc1ccc2c(/C=C/c3ccc(CN4CCCC4)cn3)n[nH]c2c1` [Compound I-41], in the series with melanin, the free fraction (fraction unbound) at 2 h, 2 µM was greater than 0.05.

The record behind these values is patent EP4781984A1 (Beyang Therapeutics Co., Ltd., priority 2023, dated 2025).
